In patent US20030013099A1, “Genes regulated by DNA methylation in colon tumors” (priority 2001, published 2003):

Key:
HT-29 cells [1] = conditions: cultured HT-29 cells, microarray experiments and other methods; cited from earlier work
HCT116 cells = assay: microarray differential expression, HCT116 cells treated with 500 nM Aza; format: cell-based, human; conditions: vs untreated, log base 2, negative = upregulation
Procedure: HT29 cells were derived from a Grade II adenocarcinoma of the colon obtained from a person. HCT116 cells are a subpopulation of malignant cells isolated from a primary cell culture of a single human colonic carcinoma (Brattain et al. (1981) Cancer Res 41:1751-6). HMEC cells are a primary human epithelial cell line derived from the breast tissue of a normal donor. HT29 and HCT116 colorectal carcinoma cells (American Type Culture Collection, Manassas Va.) were cultured in McCoy's medium supplemented with 10% fetal bovine serum (Invitrogen) at 37° C. and 5% CO2. Treated cells were exposed to 500 nM 5-aza-2-deoxycytidine (Aza; Sigma-Aldrich) 24 hours after passage in complete culture medium. Control cultures were treated in parallel with phosphate buffered saline vehicle. After twenty-four hours, culture medium was replaced with drug-free medium. Control and Aza-treated cells were subcultured at equal densities at 1 and 5 days after the initial treatment, and proliferation was measured at the subsequent time point using a Coulter counter (Beckman Coulter, Fullerton Calif.). Cells were harvested 5 days after the initial treatment.
Cells were harvested and lysed in 1 ml of TRIZOL reagent (5×10^6 cells/ml; Invitrogen). The lysates were vortexed thoroughly and incubated at room temperature for 2-3 minutes and extracted with 0.5 ml chloroform. The extract was mixed, incubated at room temperature for 5 minutes, and centrifuged at 16,000× g for 15 minutes at 4° C. The aqueous layer was collected, and an equal volume of isopropanol was added. Samples were mixed, incubated at room temperature for 10 minutes, and centrifuged at 16,000× g for 20 minutes at 4° C. The supernatant was removed, and the RNA pellet was washed with 1 ml of 70% ethanol, centrifuged at 16,000× g at 4° C., and resuspended in RNAse-free water. The concentration of the RNA was determined by measuring the optical density at 260 nm.
Poly(A) RNA was prepared using an OLIGOTEX mRNA kit (Qiagen) with the following modifications: OLIGOTEX beads were washed in tubes instead of on spin columns, resuspended in elution buffer, and then loaded onto spin columns to recover mRNA. To obtain maximum yield, the mRNA was eluted twice.
Each poly(A) RNA sample was reverse transcribed using MMLV reverse-transcriptase, 0.05 pg/μl oligo-d(T) primer (21mer), 1× first strand buffer, 0.03 units/ul RNAse inhibitor, 500 uM dAT?, 500 uM dGTP, 500 uM dTTP, 40 uM dCTP, and 40 uM either dCTP-Cy3 or dCTP-Cy5 (APB). The reverse transcription reaction was performed in a […] volume containing 200 ng poly(A) RNA using the GEMBRIGHT kit (Incyte Genomics). Specific control poly(A) RNAs (YCFRO6, YCFR45, YCFR67, YCFR85, YCFR43, YCFR22, YCFR23, YCFR25, YCFR44, YCFR26) were synthesized by in vitro transcription from non-coding yeast genomic DNA (W. Lei, unpublished). As quantitative controls, control mRNAs (YCFRO6, YCFR45, YCFR67, and YCFR85) at 0.002 ng, 0.02 ng, 0.2 ng, and 2 ng were diluted into reverse transcription reaction at ratios of 1:100,000, 1:10,000, 1:1000, 1:100 (w/w) to sample mRNA, respectively. To sample differential expression patterns, control mRNAs (YCFR43, YCFR22, YCFR23, YCFR25, YCFR44, YCFR26) were diluted into reverse transcription reaction at ratios of 1:3, 3:1, 1:10, 10:1, 1:25, 25:1 (w/w) to sample mRNA. Reactions were incubated at 37° C. for 2 hours, treated with […] of 0.5M sodium hydroxide, and incubated for 20 minutes at 85° C. to the stop the reaction and degrade the RNA.
cDNAs were purified using two successive CHROMA SPIN 30 gel filtration spin columns (Clontech). Cy3- and Cy5-labeled reaction samples were combined as described below and ethanol precipitated using […] of 100% ethanol. The cDNAs were then dried to completion using a SpeedVAC system (Savant Instruments, Holbrook N.Y.) and resuspended in 14 μl 5× SSC, 0.2% SDS. […]

HT-29 cells [2] = conditions: Aza treatment; inhibition parallels induction of IFN responsive genes; cited from earlier work

Compound: Nc1ncn([C@H]2C[C@H](O)[C@@H](CO)O2)c(=O)n1 [Aza, 5-aza-2-deoxycytidine]
- expression of genes related to interferon (IFN) signaling (HT-29 cells [1]): leads to specific expression of several genes related to interferon (IFN) signaling
- differential expression, Clone ID 2416222, HCT116 t/Aza (5d) (HCT116 cells; SEQ ID NO:1 hypothetical protein): −1.72
- differential expression, Clone ID 4103545, HCT116 t/Aza (5d) (HCT116 cells; SEQ ID NO:2 Incyte Unique): −1.35
- differential expression, Clone ID 322569, HCT116 t/Aza (5d) (HCT116 cells; SEQ ID NO:3 interferon-inducible protein): −1.17
- differential expression, Clone ID 5322134, HCT116 t/Aza (5d) (HCT116 cells; SEQ ID NO:5 chromosome 6p21.3, HLA Class I region): −1.72
- differential expression, Clone ID 1698458, HCT116 t/Aza (5d) (HCT116 cells; SEQ ID NO:6 unnamed protein product): −1.32
- differential expression, Clone ID 1871523, HCT116 t/Aza (5d) (HCT116 cells; SEQ ID NO:7 KIAA1046 protein): −0.85
- differential expression, Clone ID 6024084, HCT116 t/Aza (5d) (HCT116 cells; SEQ ID NO:8 putative tumor antigen): −2.66
- differential expression, Clone ID 3810006, HCT116 t/Aza (5d) (HCT116 cells; SEQ ID NO:9 Incyte Unique): −0.85
- differential expression, Clone ID 4508879, HCT116 t/Aza (5d) (HCT116 cells; SEQ ID NO:10 Incyte Unique): −0.89
- differential expression, Clone ID 4225379, HCT116 t/Aza (5d) (HCT116 cells; SEQ ID NO:11 U 6 RNA): −0.89
- differential expression, Clone ID 3463713, HCT116 t/Aza (5d) (HCT116 cells; SEQ ID NO:12 cDNA clone ZD16H10): −1.46
- differential expression, Clone ID 2998017, HCT116 t/Aza (5d) (HCT116 cells; SEQ ID NO:13, 14 T-cell receptor gamma): −1.23
- differential expression, Clone ID 4318273, HCT116 t/Aza (5d) (HCT116 cells; SEQ ID NO:15 pTR5 repetitive sequence): −1.07
- differential expression, Clone ID 1649414, HCT116 t/Aza (5d) (HCT116 cells; SEQ ID NO:16 Hep27 protein): −1.00
- differential expression, Clone ID 1684742, HCT116 t/Aza (5d) (HCT116 cells; SEQ ID NO:18 cDNA FLJ20222): −0.89
- differential expression, Clone ID 2825816, HCT116 t/Aza (5d) (HCT116 cells; SEQ ID NO:19 KIAA0412): −0.89
- differential expression, Clone ID 2440943, HCT116 t/Aza (5d) (HCT116 cells; SEQ ID NO:21 Incyte Unique): −1.00
- differential expression, Clone ID 1294339, HCT116 t/Aza (5d) (HCT116 cells; SEQ ID NO:22 PDGF-B): −0.89
- differential expression, Clone ID 5104741, HCT116 t/Aza (5d) (HCT116 cells; SEQ ID NO:23 cDNA FLJ10570): −1.23
- differential expression, Clone ID 1855389, HCT116 t/Aza (5d) (HCT116 cells; SEQ ID NO:24 pTR7 repetitive sequence): −1.51
- differential expression, Clone ID 5207613, HCT116 t/Aza (5d) (HCT116 cells; SEQ ID NO:25 chromosome 21 segment HS21C049): −1.67
- differential expression, Clone ID 3207902, HCT116 t/Aza (5d) (HCT116 cells; SEQ ID NO:26 hypothetical protein): −0.89
- differential expression, Clone ID 4999769, HCT116 t/Aza (5d) (HCT116 cells; SEQ ID NO:27 ZNFpT17): −1.09
- differential expression, Clone ID 408886, HCT116 t/Aza (5d) (HCT116 cells; SEQ ID NO:28 transketolase): −2.32
- differential expression, Clone ID 4764233, HCT116 t/Aza (5d) (HCT116 cells; SEQ ID NO:30 GAGE-8): −1.79
- differential expression, Clone ID 2511379, HCT116 t/Aza (5d) (HCT116 cells; SEQ ID NO:31 GAGE-7B): −1.34
- differential expression, Clone ID 2471817, HCT116 t/Aza (5d) (HCT116 cells; SEQ ID NO:33 cDNA clone YU62C03): −0.89
- differential expression, Clone ID 3333736, HCT116 t/Aza (5d) (HCT116 cells; SEQ ID NO:34 MAGE-11 antigen): −1.38
- differential expression, Clone ID 1304365, HCT116 t/Aza (5d) (HCT116 cells; SEQ ID NO:35 GAGE-8): −1.78
- differential expression, Clone ID 2657056, HCT116 t/Aza (5d) (HCT116 cells; SEQ ID NO:37, 38 MAGE-4b antigen): −1.58
- differential expression, Clone ID 2507719, HCT116 t/Aza (5d) (HCT116 cells; SEQ ID NO:39 MAGE-9 antigen): −1.70
- differential expression, Clone ID 4688, HCT116 t/Aza (5d) (HCT116 cells; SEQ ID NO:41 MAGE-1): −1.14
- differential expression, Clone ID 2068708, HCT116 t/Aza (5d) (HCT116 cells; SEQ ID NO:42 HM74): −0.46
- differential expression, Clone ID 23770, HCT116 t/Aza (5d) (HCT116 cells; SEQ ID NO:43 1-8D): −0.72
- differential expression, Clone ID 1616783, HCT116 t/Aza (5d) (HCT116 cells; SEQ ID NO:45 Incyte Unique): −0.80
- differential expression, Clone ID 820942, HCT116 t/Aza (5d) (HCT116 cells; SEQ ID NO:46 cDNA FLJ20120): −0.26
- differential expression, Clone ID 891322, HCT116 t/Aza (5d) (HCT116 cells; SEQ ID NO:47 Incyte Unique): −0.58
- differential expression, Clone ID 2755836, HCT116 t/Aza (5d) (HCT116 cells; SEQ ID NO:48 U5 A RNA): −0.58
- differential expression, Clone ID 1227521, HCT116 t/Aza (5d) (HCT116 cells; SEQ ID NO:49 phospholipid scramblase 1): −0.58
- differential expression, Clone ID 2200842, HCT116 t/Aza (5d) (HCT116 cells; SEQ ID NO:50 retinoid inducible gene 1): 0.00
- differential expression, Clone ID 2238363, HCT116 t/Aza (5d) (HCT116 cells; SEQ ID NO:51 interferon induced): −0.24
- differential expression, Clone ID 1495382, HCT116 t/Aza (5d) (HCT116 cells; SEQ ID NO:53 TRAIL): −0.26
- differential expression, Clone ID 1998269, HCT116 t/Aza (5d) (HCT116 cells; SEQ ID NO:55 rhoB): −0.63
- differential expression, Clone ID 1919287, HCT116 t/Aza (5d) (HCT116 cells; SEQ ID NO:56 hepatitis C-associated microtubular aggregate): 0.00
- differential expression, Clone ID 2637446, HCT116 t/Aza (5d) (HCT116 cells; SEQ ID NO:57 HE4 protein): −0.29
- differential expression, Clone ID 1962141, HCT116 t/Aza (5d) (HCT116 cells; SEQ ID NO:58 Similar to keratin 7): −0.92
- differential expression, Clone ID 4933404, HCT116 t/Aza (5d) (HCT116 cells; SEQ ID NO:60 Incyte Unique): −2.08
- differential expression, Clone ID 2150288, HCT116 t/Aza (5d) (HCT116 cells; SEQ ID NO:61 Keratin 8): −0.92
- differential expression, Clone ID 2697455, HCT116 t/Aza (5d) (HCT116 cells; SEQ ID NO:61 Keratin 8): −1.14
- growth of HT-29 cells in culture (HT-29 cells [2]): inhibits growth
